Measured values reported in the NIST ThermoML archive (doi:10.1021/acs.jced.8b00524).

Experiment: xn = mol fraction of the nth substance listed
Details: 100 kPa, Liquid; for viscosity: Concentric cylinders viscometry; for mass density: Vibrating tube method

CCCCOC(C)=O [butyl ethanoate] + CCCCCCO
Details	mass density [kg/m3]	viscosity [mPa·s]
293.15 K, x1 = 0.0811	823.6	4.7
293.15 K, x1 = 0.1602	828.4	4.14
293.15 K, x1 = 0.2398	833.3	3.64
293.15 K, x1 = 0.3507	840.1	3.04
293.15 K, x1 = 0.4402	845.7	2.63
293.15 K, x1 = 0.5596	853.1	2.16
293.15 K, x1 = 0.6504	858.9	1.84
293.15 K, x1 = 0.7398	864.5	1.55
293.15 K, x1 = 0.8507	871.6	1.2
293.15 K, x1 = 0.9397	877.2	0.92
293.15 K, x1 = 1	881.1	0.732
298.15 K, x1 = 0.0811	819.8	3.99
298.15 K, x1 = 0.1602	824.4	3.5
298.15 K, x1 = 0.2398	829.1	3.06
298.15 K, x1 = 0.3507	835.8	2.56
298.15 K, x1 = 0.4402	841.2	2.22
298.15 K, x1 = 0.5596	848.5	1.82
298.15 K, x1 = 0.6504	854	1.56
298.15 K, x1 = 0.7398	859.6	1.32
298.15 K, x1 = 0.8507	866.5	1.05
298.15 K, x1 = 0.9397	872.1	0.83
298.15 K, x1 = 1	876	0.677
303.15 K, x1 = 0.0811	815.9	3.41
303.15 K, x1 = 0.1602	820.3	2.99
303.15 K, x1 = 0.2398	824.8	2.61
303.15 K, x1 = 0.3507	831.2	2.18
303.15 K, x1 = 0.4402	836.5	1.89
303.15 K, x1 = 0.5596	843.6	1.56
303.15 K, x1 = 0.6504	849.1	1.34
303.15 K, x1 = 0.7398	854.5	1.15
303.15 K, x1 = 0.8507	861.3	0.93
303.15 K, x1 = 0.9397	866.9	0.76
303.15 K, x1 = 1	870.9	0.628
308.15 K, x1 = 0.0811	812	2.94
308.15 K, x1 = 0.1602	816.2	2.57
308.15 K, x1 = 0.2398	820.6	2.24
308.15 K, x1 = 0.3507	826.7	1.86
308.15 K, x1 = 0.4402	831.8	1.61
308.15 K, x1 = 0.5596	838.7	1.33
308.15 K, x1 = 0.6504	844	1.16
308.15 K, x1 = 0.7398	849.4	1
308.15 K, x1 = 0.8507	856.2	0.82
308.15 K, x1 = 0.9397	861.7	0.69
308.15 K, x1 = 1	865.7	0.585
313.15 K, x1 = 0.0811	808	2.54
313.15 K, x1 = 0.1602	811.9	2.21
313.15 K, x1 = 0.2398	816	1.93
313.15 K, x1 = 0.3507	821.8	1.61
313.15 K, x1 = 0.4402	826.7	1.41
313.15 K, x1 = 0.5596	833.5	1.18
313.15 K, x1 = 0.6504	838.8	1.04
313.15 K, x1 = 0.7398	844.1	0.92
313.15 K, x1 = 0.8507	850.9	0.76
313.15 K, x1 = 0.9397	856.4	0.63
313.15 K, x1 = 1	860.5	0.546
318.15 K, x1 = 0.0811	804.2	2.21
318.15 K, x1 = 0.1602	807.9	1.92
318.15 K, x1 = 0.2398	811.7	1.68
318.15 K, x1 = 0.3507	817.4	1.4
318.15 K, x1 = 0.4402	822.1	1.23
318.15 K, x1 = 0.5596	828.6	1.05
318.15 K, x1 = 0.6504	833.8	0.93
318.15 K, x1 = 0.7398	839	0.83
318.15 K, x1 = 0.8507	845.7	0.7
318.15 K, x1 = 0.9397	851.2	0.59
318.15 K, x1 = 1	855.3	0.512
323.15 K, x1 = 0.0811	800.1	1.96
323.15 K, x1 = 0.1602	803.5	1.71
323.15 K, x1 = 0.2398	807.2	1.49
323.15 K, x1 = 0.3507	812.5	1.25
323.15 K, x1 = 0.4402	817.1	1.09
323.15 K, x1 = 0.5596	823.5	0.93
323.15 K, x1 = 0.6504	828.6	0.83
323.15 K, x1 = 0.7398	833.8	0.75
323.15 K, x1 = 0.8507	840.4	0.65
323.15 K, x1 = 0.9397	846	0.56
323.15 K, x1 = 1	850.1	0.485

CCCCCCCCCCO [decan-1-ol] + CCCCOC(C)=O
Details	mass density [kg/m3]	viscosity [mPa·s]
293.15 K, x2 = 0	829.5	14.42
293.15 K, x2 = 0.0809	832	12.8
293.15 K, x2 = 0.1599	834.6	11.41
293.15 K, x2 = 0.2401	837.6	10.07
293.15 K, x2 = 0.3499	842	8.41
293.15 K, x2 = 0.4401	846	7.18
293.15 K, x2 = 0.5598	851.9	5.67
293.15 K, x2 = 0.6499	856.8	4.62
293.15 K, x2 = 0.7401	862.3	3.6
293.15 K, x2 = 0.8499	869.6	2.38
293.15 K, x2 = 0.9399	876.2	1.38
298.15 K, x2 = 0	826.1	11.8
298.15 K, x2 = 0.0809	828.4	10.44
298.15 K, x2 = 0.1599	830.9	9.29
298.15 K, x2 = 0.2401	833.7	8.2
298.15 K, x2 = 0.3499	838	6.86
298.15 K, x2 = 0.4401	841.8	5.87
298.15 K, x2 = 0.5598	847.5	4.61
298.15 K, x2 = 0.6499	852.3	3.75
298.15 K, x2 = 0.7401	857.5	2.94
298.15 K, x2 = 0.8499	864.7	1.97
298.15 K, x2 = 0.9399	871.1	1.19
303.15 K, x2 = 0	822.7	9.76
303.15 K, x2 = 0.0809	824.8	8.61
303.15 K, x2 = 0.1599	827.1	7.62
303.15 K, x2 = 0.2401	829.7	6.71
303.15 K, x2 = 0.3499	833.8	5.59
303.15 K, x2 = 0.4401	837.5	4.78
303.15 K, x2 = 0.5598	843	3.75
303.15 K, x2 = 0.6499	847.6	3.06
303.15 K, x2 = 0.7401	852.7	2.4
303.15 K, x2 = 0.8499	859.6	1.64
303.15 K, x2 = 0.9399	866	1.04
308.15 K, x2 = 0	819.3	8.14
308.15 K, x2 = 0.0809	821.2	7.15
308.15 K, x2 = 0.1599	823.4	6.31
308.15 K, x2 = 0.2401	825.8	5.54
308.15 K, x2 = 0.3499	829.6	4.61
308.15 K, x2 = 0.4401	833.1	3.93
308.15 K, x2 = 0.5598	838.5	3.11
308.15 K, x2 = 0.6499	842.9	2.54
308.15 K, x2 = 0.7401	847.9	2.02
308.15 K, x2 = 0.8499	854.6	1.4
308.15 K, x2 = 0.9399	860.8	0.9
313.15 K, x2 = 0	815.8	6.84
313.15 K, x2 = 0.0809	817.3	5.99
313.15 K, x2 = 0.1599	819.2	5.27
313.15 K, x2 = 0.2401	821.4	4.62
313.15 K, x2 = 0.3499	824.9	3.83
313.15 K, x2 = 0.4401	828.2	3.28
313.15 K, x2 = 0.5598	833.2	2.59
313.15 K, x2 = 0.6499	837.5	2.15
313.15 K, x2 = 0.7401	842.4	1.71
313.15 K, x2 = 0.8499	849.1	1.22
313.15 K, x2 = 0.9399	855.3	0.81
318.15 K, x2 = 0	812.4	5.8
318.15 K, x2 = 0.0809	813.7	5.06
318.15 K, x2 = 0.1599	815.3	4.45
318.15 K, x2 = 0.2401	817.2	3.89
318.15 K, x2 = 0.3499	820.3	3.22
318.15 K, x2 = 0.4401	823.4	2.75
318.15 K, x2 = 0.5598	828.2	2.18
318.15 K, x2 = 0.6499	832.4	1.8
318.15 K, x2 = 0.7401	837.2	1.45
318.15 K, x2 = 0.8499	843.9	1.05
318.15 K, x2 = 0.9399	850.2	0.73
323.15 K, x2 = 0	808.9	4.96
323.15 K, x2 = 0.0809	809.9	4.31
323.15 K, x2 = 0.1599	811.3	3.79
323.15 K, x2 = 0.2401	813	3.3
323.15 K, x2 = 0.3499	815.9	2.72
323.15 K, x2 = 0.4401	818.8	2.32
323.15 K, x2 = 0.5598	823.4	1.84
323.15 K, x2 = 0.6499	827.3	1.53
323.15 K, x2 = 0.7401	832.1	1.25
323.15 K, x2 = 0.8499	838.7	0.92
323.15 K, x2 = 0.9399	844.9	0.66
